# Patent US20250115595A1, “INHIBITORS OF HYPOXIA-INDUCIBLE FACTORS” (The Johns Hopkins University, priority 2021, published 2025)
# Legend:
# C57BL/6 mice [1] = assay: Ischemia/reperfusion (I/R) model of vascular permeability; format: in vivo, mouse; settings: 5 daily IP injections 40 mg/kg
# Method: The ability of 32-134D to inhibit vascular permeability in retinal vein occlusion patients was evaluated using the ischemia/reperfusion (I/R) model for vascular permeability in ischemic retinal disease. Transient ischemia was induced in the left eye in 8-to-10-week-old male C57BL/6 mice; the right eye was used as the non-I/R control. Following ischemia, mice were treated with 5 daily IP injections of vehicle control or 32-134D at 40 mg/kg. 24 hours after the fifth IP injection, mice were euthanized, Evans blue perfusion was performed, and retina flat mounts were examined for vascular leakage. […] There was no difference between non-/R (healthy) eyes and I/R eyes treated with 32-134D.
# Vascular permeability by Evans blue tracer method: Mice were anesthetized with a mixture of ketamine (50 mg/kg) and xylazine (5 mg/kg) and subjected to Evans blue (Sigma) (50 mg/kg) perfusion by penile vein injection. […] Images were captured by Zeiss fluorescent microscope or confocal microscopy and fluorescence quantified by image J software (NIH). […] Blinded quantification of the number of leaking vessels was performed by manual counting major leakage from capillaries from retinas of each group. Non-capillary artifactual Evans blue or FITC-dextran leakage due to flat mount processing as well as minor leakages were not included in the quantitation. […] For quantification, high magnifications (20×) images were taken. […]
# C57BL/6 mice [2] = assay: Safety after systemic (IP) dosing: fundus/angiography, ERG, tissue histology; format: in vivo, mouse
# Method: Fundus photos and fluorescein angiographic images of the retina of C57BL/6 mice on day 30 following 5 daily intraperitoneal (IP) injections (day 0 to day 5) with 32-134D at 40 or 80 mg/kg compared to vehicle control (FIG. 17).
# ERG measurements taken in C57BL/6 mice at day 7 (D7) and day 14 (D14) following 5 daily IP injections (day 0 to day 5) with vehicle control (Veh) or 32-134D at 20, 40, or 80 mg/kg/day.
# To survey for possible organ damage following systemic administration, three-month-old mice were treated with the 80 mg/kg/day of 32-134D by IP injection for five consecutive days (days 0-4). On day 30, mice were sacrificed, perfused with PBS, and tissues were harvested and fixed in 4% paraformaldehyde (PFA). Harvested tissues included the brain, heart, muscle, liver, spleen, kidney, stomach, small intestine, and large intestine. Tissues were embedded with paraffin, sectioned at […], and stained with hematoxylin and eosin. Images were taken at 20× magnification.
# Flash scotopic ERGs: All procedures were performed under dim red light. Mice were dark adapted overnight, anesthetized with ketamine (50 mg/kg) and xylazine (5 mg/kg) and pupils were dilated with a topical drop of tropicamide (1%). Scotopic ERG responses were measured using the Celeris ERG stimulator (Diagnosys, Lowell, MA) at flash intensities of 0.025, 0.25, 2.5, 7.96, and 79.06 cd/s/m2. ERGs were measured simultaneously from both eyes with a ground electrode placed into the forehead between the eyes and a reference electrode into the hip.
# Fluorescein angiography in mice: To evaluate the effect of 32-134D on the retinal vasculature and vascular permeability, experimental animals were treated with 5 consecutive daily IP injections with 32-134D at 40 or 80 mg/kg. On day 30, mice were anesthetized using intramuscular injection with ketamine (50 mg/kg) and xylazine (5 mg/kg). Pupils were then dilated using 1% tropicamide eye drops and mice were placed on the imaging platform of the Phoenix Micron III retinal imaging microscope (Phoenix Research Laboratories, Pleasanton, CA). Goniovisc 2.5% (hypromellose; Sigma Pharmaceuticals, LLC, Monticello, IA) was applied liberally to keep the eye moist during imaging studies. Fundus photos were taken before administering 10 to 20 μl of 10% fluorescein sodium (Apollo Ophthalmics, Newport Beach, CA) IP injection. Rapid acquisition of fluorescein angiographic images was then performed for 5 minutes. Fluorescein leakage manifests as indistinct vascular borders progressing to diffusely hazy fluorescence. Fluorescein leakage was compared between different groups by quantifying the fluorescence intensities collected after 1, 2, and 3 minutes following fluorescein injection using ImageJ software (National Institutes of Health, Bethesda, MD).
# HIF-1α and HIF-2α = assay: HIF accumulation in hypoxic HUVECs; format: cell-based, human; settings: 10 μM, 4 hours
# From the text: Vascular endothelial cells also secrete angiogenic mediators that contribute to the progression of diabetic eye disease (Y. Qin et al., Sci Adv 8, eabm1896 (2022)). Exposure of human umbilical vein endothelial cells (HUVECs) to hypoxia induced HIF-1α and HIF-2α protein accumulation, which was inhibited by 32-134D (FIG. 30). […] Of note, ANGPT2 and VE-PTP, two emerging targets for the treatment of diabetic eye disease, are both expressed specifically by vascular cells (G. Fachinger, et al., Oncogene 18, 5948-5953 (1999); P. C. Maisonpierre et al., Science 277, 55-60 (1997)).
# Cells culture and reagents: MIO-M1 cells were a gift from Dr. Astrid Limb (University College London, Institute of Ophthalmology, London, United Kingdom). MIO-M1 and HUVEC cells were cultured in DMEM with 10% (vol/vol) FBS (Quality Biological) and 1% penicillin/streptomycin (Cellgro). Hypoxia chambers were used to expose cells. Evans Blue (E2129) was purchased from Sigma-Aldrich.
# Immunoblot assays and ELISAs: Cell, neurosensory retina, and D120 retinal organoid lysates were subjected to 4-15% gradient SDS/PAGE (Invitrogen). Immunoblot assays were performed as previously described (X. Xin et al., 2013, Proc Natl Acad Sci USA 110, E3425-3434).
# [3] = 5 daily IP injections 20, 40 or 80 mg/kg/day, D7 and D14
structure (smiles),measurement,setting,value
"Brc1ccc2c(-c3csc(-c4c[nH]c5c(Br)cccc45)n3)c[nH]c2c1 [Compound 32-134D, 4-(6-bromo-1H-indol-3-yl)-2-(7-bromo-1H-indol-3-yl)thiazole]",vascular leakage in I/R eyes (Evans blue),C57BL/6 mice [1],significant reduction in vascular leakage
same,"tissue histology (brain, heart, muscle, liver, spleen, kidney, stomach, intestines)","C57BL/6 mice [2]; 80 mg/kg/day IP for five days, day 30",no evidence of toxicity
same,ERG a-wave versus vehicle,C57BL/6 mice [2]; [3],no statistically significant difference
same,ERG b-wave versus vehicle,C57BL/6 mice [2]; [3],no statistically significant difference
same,fundus photos and fluorescein angiography of retina,"C57BL/6 mice [2]; 5 daily IP injections 40 or 80 mg/kg, day 30",intact retinal vasculature and absence of capillary leakage
same,hypoxia-induced HIF-1α and HIF-2α protein accumulation,HIF-1α and HIF-2α,inhibited
